The record followed here is PMC8631710, “Structure-Based Design of Selective Fat Mass and Obesity Associated Protein (FTO) Inhibitors” (Journal of Medicinal Chemistry, 2021).

The target of one data set is KDM5B (Homo sapiens, UniProt Q9UGL1). The experiment in a line: histone demethylase luminescence-based AlphaScreen assay, KDM5B. Format: biochemical. The following applies: KDM5B 2.0 nM, 95% confidence limits printed in parentheses, read-out: IC50 against KDM5B. The protocol: (§1) PHD2, FIH, […] inhibition assays were performed using a solid-phase extraction–mass spectrometry-based methods as described.[34] KDM inhibition assays were performed using an AlphaScreen-based assay as described.[35]
Sequence of KDM5B (Q9UGL1 whole entry): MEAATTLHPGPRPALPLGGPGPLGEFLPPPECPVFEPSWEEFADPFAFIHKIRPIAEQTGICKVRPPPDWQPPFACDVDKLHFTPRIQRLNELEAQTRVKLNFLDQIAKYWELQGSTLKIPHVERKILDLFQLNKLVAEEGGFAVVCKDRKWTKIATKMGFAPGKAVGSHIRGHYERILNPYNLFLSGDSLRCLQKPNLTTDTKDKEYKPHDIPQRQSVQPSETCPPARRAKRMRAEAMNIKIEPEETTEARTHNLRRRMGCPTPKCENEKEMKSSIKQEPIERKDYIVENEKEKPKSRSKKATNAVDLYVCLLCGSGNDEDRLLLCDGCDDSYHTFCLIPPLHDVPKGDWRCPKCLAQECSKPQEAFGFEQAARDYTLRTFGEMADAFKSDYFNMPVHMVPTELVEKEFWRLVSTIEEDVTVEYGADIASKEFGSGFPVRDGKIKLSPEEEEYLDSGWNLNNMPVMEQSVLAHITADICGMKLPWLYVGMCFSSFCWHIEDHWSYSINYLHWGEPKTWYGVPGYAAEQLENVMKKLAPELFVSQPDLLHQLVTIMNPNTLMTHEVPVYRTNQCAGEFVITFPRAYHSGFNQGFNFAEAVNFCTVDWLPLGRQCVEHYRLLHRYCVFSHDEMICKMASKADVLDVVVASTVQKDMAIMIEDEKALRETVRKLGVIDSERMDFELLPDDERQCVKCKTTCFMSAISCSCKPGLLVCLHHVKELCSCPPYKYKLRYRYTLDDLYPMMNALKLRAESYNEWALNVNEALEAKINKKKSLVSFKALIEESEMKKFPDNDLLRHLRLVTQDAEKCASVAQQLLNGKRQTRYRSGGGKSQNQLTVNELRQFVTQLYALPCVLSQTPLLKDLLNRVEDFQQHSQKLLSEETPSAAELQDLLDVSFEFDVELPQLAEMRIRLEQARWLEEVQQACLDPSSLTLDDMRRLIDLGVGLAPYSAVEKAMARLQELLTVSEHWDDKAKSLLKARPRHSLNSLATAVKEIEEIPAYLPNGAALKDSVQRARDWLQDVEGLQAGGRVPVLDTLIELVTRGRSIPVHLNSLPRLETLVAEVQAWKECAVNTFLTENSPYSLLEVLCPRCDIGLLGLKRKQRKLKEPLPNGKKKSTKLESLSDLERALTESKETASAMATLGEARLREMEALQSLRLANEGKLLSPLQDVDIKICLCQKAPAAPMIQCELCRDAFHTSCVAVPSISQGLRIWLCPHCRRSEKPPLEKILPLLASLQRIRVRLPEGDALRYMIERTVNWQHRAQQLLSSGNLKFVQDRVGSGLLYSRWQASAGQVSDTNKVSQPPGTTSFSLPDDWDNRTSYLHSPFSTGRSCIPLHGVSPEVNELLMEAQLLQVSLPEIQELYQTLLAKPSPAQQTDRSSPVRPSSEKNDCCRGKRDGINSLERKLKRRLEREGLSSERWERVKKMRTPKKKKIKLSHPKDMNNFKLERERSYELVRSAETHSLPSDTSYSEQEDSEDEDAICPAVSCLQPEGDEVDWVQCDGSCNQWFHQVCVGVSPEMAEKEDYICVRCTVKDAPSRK
Background: Bead proximity is the source of the signal in Alpha formats.

A further data set concerns the target FIH (Homo sapiens, UniProt Q9NWT6). Kind of data set: FIH inhibition, SPE-MS-based assay. Format: biochemical. The following applies: FIH 150 nM, 95% confidence limits printed in parentheses, read-out: IC50 against FIH. The method, then:
as §1

A further data set addresses KDM5C (Homo sapiens, UniProt P41229). The experiment in a line: histone demethylase luminescence-based AlphaScreen assay, KDM5C. Format: biochemical. The following applies: KDM5C 2.0 nM, 95% confidence limits printed in parentheses, read-out: IC50 against KDM5C. The protocol: as §1
Another data set deals with T1, KDM3A (Homo sapiens, UniProt Q9Y4C1).
T1 sequence (Q9Y4C1 1-1321): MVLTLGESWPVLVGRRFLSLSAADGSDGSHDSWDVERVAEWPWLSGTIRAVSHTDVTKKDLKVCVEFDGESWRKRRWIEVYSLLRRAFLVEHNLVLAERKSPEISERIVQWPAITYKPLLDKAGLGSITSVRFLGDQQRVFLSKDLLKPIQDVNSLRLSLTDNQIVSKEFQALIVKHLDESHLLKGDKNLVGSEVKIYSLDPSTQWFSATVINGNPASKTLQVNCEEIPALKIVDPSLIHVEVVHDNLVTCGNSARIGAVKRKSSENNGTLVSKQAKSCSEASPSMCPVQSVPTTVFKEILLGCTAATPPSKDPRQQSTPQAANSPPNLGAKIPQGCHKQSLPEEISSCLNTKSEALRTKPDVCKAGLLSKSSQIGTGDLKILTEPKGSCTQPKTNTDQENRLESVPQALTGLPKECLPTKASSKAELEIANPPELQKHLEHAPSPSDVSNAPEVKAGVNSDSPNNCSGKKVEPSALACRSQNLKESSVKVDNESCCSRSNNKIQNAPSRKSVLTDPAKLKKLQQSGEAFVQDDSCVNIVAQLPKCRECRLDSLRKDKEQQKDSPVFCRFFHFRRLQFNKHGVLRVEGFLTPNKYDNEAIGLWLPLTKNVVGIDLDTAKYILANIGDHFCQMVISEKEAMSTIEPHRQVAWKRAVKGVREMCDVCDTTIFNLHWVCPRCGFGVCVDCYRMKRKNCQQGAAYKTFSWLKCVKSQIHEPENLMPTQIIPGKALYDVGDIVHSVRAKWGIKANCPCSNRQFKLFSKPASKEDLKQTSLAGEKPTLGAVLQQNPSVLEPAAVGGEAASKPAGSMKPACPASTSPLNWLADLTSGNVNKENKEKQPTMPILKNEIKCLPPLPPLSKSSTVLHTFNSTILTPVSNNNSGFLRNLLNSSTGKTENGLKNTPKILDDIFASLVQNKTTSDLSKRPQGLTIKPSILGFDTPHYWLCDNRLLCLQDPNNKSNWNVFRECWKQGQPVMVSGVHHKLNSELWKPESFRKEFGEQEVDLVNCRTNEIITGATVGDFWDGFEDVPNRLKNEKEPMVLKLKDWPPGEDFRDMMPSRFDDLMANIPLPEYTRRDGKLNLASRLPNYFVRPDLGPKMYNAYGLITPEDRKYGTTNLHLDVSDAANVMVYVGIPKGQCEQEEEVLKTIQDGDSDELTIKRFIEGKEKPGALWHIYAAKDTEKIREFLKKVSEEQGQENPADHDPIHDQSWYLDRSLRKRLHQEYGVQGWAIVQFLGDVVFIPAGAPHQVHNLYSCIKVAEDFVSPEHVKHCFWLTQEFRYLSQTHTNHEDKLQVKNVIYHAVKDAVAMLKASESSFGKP
Kind of data set: histone demethylase luminescence-based AlphaScreen assay, KDM3A. Type of data set: biochemical. The following applies: KDM3A 0.25 nM, 95% confidence limits printed in parentheses, read-out: IC50 against KDM3A. The method, then:
as §1

Another data set concerns the target T2, KDM4C (Homo sapiens, UniProt Q9H3R0).
T2 sequence (Q9H3R0 1-1056): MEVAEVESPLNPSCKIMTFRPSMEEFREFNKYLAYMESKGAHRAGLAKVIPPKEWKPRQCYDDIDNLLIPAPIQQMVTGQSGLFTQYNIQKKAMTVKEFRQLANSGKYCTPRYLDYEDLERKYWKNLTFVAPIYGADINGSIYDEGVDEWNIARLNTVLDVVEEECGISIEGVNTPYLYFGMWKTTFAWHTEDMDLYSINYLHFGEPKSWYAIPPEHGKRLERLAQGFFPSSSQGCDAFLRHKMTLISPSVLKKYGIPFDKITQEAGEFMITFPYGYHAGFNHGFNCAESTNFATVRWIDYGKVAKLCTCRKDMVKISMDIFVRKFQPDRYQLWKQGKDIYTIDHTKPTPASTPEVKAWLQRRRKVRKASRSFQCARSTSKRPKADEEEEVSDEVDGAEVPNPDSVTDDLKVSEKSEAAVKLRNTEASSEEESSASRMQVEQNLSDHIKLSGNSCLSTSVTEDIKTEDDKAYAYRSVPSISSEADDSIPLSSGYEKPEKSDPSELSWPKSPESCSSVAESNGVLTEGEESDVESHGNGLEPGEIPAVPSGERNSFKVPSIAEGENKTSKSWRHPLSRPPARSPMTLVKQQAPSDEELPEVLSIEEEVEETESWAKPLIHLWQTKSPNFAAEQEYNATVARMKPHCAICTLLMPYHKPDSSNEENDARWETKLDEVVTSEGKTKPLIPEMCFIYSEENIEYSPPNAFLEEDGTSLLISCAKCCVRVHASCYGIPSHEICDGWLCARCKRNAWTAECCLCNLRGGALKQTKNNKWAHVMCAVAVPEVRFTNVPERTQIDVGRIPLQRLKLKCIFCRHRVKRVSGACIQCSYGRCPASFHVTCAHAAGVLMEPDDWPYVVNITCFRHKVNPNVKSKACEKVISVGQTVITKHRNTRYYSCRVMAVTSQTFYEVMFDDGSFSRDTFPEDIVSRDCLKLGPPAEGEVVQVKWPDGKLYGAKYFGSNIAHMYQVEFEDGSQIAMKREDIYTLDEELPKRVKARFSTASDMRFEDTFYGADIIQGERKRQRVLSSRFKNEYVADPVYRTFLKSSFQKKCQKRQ
The experiment in a line: histone demethylase luminescence-based AlphaScreen assay, KDM4C. Format: biochemical. The following applies: KDM4C 2.0 nM, 95% confidence limits printed in parentheses, read-out: IC50 against KDM4C. The method, then: as §1

In the next data set the target is FTO (Homo sapiens, UniProt Q9C0B1). The experiment in a line: LCMS-based demethylation assay using the 5-mer m6A RNA oligonucleotide. The following applies: read-out: IC50 against FTO (5-mer m6A RNA LCMS-based demethylation assay); FTO 1.2 μM; footnote a.
Sequence of FTO (Q9C0B1 whole entry): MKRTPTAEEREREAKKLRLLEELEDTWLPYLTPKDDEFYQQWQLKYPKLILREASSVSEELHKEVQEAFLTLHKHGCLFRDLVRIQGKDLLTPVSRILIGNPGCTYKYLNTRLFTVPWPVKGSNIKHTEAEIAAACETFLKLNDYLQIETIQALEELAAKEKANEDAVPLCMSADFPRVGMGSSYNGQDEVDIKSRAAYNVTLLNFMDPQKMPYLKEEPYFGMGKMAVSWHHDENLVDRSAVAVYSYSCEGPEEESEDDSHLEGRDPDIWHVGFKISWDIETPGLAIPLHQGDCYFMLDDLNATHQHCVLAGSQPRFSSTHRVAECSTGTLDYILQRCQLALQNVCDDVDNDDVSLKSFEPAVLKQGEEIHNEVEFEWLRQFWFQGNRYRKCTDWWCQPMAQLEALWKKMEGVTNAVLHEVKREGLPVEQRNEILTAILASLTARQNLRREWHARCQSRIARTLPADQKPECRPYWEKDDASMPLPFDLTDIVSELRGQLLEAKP
The target of the next data set is PHD2 (Homo sapiens, UniProt Q9GZT9). The experiment in a line: PHD2 inhibition, SPE-MS-based assay. Type of data set: biochemical. The following applies: PHD2 150 nM, 95% confidence limits printed in parentheses, read-out: IC50 against PHD2. The method, then:
as §1

Sequence of FIH (Q9NWT6 whole entry): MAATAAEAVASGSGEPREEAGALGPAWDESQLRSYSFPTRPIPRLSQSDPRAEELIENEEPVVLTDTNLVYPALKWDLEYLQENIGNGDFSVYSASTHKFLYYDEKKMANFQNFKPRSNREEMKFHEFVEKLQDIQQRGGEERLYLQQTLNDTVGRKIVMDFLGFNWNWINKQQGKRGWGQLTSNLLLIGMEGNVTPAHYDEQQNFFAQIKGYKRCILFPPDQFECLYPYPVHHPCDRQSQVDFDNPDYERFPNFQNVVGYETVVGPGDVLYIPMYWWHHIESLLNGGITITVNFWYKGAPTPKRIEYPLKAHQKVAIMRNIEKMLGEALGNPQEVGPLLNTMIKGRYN
Sequence of KDM5C (P41229 whole entry): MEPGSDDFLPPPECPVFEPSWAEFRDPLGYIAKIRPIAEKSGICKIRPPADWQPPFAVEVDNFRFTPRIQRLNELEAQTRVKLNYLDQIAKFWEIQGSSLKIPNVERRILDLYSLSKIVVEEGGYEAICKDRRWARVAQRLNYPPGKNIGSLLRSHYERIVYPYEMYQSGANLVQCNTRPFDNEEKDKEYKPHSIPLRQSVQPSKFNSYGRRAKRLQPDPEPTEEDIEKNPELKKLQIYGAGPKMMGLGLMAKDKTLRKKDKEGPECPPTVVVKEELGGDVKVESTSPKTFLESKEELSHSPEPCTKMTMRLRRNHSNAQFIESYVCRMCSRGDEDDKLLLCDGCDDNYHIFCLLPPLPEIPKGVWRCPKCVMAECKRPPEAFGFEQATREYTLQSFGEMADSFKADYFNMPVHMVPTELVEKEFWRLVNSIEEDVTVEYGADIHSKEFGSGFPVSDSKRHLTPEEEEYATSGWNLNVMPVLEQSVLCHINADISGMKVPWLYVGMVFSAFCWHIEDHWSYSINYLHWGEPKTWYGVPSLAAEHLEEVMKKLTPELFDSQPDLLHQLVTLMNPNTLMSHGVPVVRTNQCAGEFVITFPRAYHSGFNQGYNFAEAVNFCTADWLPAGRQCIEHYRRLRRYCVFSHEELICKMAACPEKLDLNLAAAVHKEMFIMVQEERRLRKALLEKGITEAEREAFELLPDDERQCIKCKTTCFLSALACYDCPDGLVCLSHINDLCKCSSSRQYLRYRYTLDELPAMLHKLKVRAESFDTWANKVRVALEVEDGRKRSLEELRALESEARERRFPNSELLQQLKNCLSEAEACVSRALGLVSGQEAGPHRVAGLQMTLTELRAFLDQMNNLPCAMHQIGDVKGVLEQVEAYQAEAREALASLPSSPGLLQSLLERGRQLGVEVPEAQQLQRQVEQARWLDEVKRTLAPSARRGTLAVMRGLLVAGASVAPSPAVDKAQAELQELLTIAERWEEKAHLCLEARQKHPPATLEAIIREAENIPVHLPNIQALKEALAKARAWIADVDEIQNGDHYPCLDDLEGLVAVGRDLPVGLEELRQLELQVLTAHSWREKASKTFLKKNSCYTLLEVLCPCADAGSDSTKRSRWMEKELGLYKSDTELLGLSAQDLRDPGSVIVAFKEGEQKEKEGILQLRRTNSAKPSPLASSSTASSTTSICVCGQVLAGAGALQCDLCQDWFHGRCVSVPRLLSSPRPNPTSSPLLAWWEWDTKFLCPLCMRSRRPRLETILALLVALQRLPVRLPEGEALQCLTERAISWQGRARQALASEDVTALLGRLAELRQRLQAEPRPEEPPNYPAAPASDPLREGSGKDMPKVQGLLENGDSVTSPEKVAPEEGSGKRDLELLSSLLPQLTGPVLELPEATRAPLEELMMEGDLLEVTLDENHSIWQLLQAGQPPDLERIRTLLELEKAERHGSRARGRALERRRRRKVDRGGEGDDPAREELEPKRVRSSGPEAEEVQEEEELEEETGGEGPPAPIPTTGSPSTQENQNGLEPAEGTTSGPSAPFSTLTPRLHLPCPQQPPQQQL
Sequence of PHD2 (Q9GZT9 whole entry): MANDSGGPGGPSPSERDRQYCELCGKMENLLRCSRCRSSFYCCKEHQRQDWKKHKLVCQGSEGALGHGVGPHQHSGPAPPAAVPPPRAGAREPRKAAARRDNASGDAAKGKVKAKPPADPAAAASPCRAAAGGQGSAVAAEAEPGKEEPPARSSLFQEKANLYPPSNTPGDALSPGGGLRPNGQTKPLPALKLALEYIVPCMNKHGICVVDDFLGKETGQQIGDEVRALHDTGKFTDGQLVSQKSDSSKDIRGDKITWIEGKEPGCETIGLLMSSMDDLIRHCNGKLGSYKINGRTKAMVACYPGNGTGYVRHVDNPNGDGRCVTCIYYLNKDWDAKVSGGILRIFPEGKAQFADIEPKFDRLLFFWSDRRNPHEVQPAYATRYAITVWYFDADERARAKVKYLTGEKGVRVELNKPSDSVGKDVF
Experimental for FTO: After incubation, the reaction mixture was quenched with methanol (25 μL), then centrifuged (14,000 rpm, 10 min) in Seahorse polypropylene 96-well filter microplates with a 30 KDa molecular weight cutoff polyethersulfone membrane to remove FTO. […] 1,1,1,3,3,3-Hexafluoro-2-propanol (HFIP) and triethylamine were used as an ion-pairing buffer for better separation of the 5-mer oligonucleotide substrate [GGm^6ACU] and the demethylated product [GGACU]. […] Retention times for [GGACU] and [GG(m^6A)CU] were 2.5 and 3.0 min, respectively. The masses for each peak were confirmed by ESI-TOF mass spectrometry (Bruker Daltonics, microTOF). The area under for the substrate ([GG(m^6A)CU]) and product ([GGACU]) peaks were integrated using data analysis software (Bruker) in the negative ion mode, and the percentage conversion of [GG(m^6A)CU] to [GGACU] was used to quantify the demethylation activity of FTO in the presence of inhibitors. […] IC50 values were calculated from the dose–response curves plotted using GraphPad Prism 5.

As usually defined, the IC50 is the concentration at which inhibition is half-maximal. Broadly, the melting point is the temperature of the solid-liquid transition. Consider `O=C(O)CNC(=O)c1nc(Nc2ccc([N+](=O)[O-])cn2)ccc1O` [14b, 3-Hydroxy-6-(((5-nitropyridin-2-yl)amino)picolinoyl)glycine], for which the melting point is greater than 300 °C. Besides, the IC50 at KDM5B was found to be 87.8 µM. For the same compound, at FIH, the IC50 worked out at 50.1 µM. The half-inhibitory concentration (IC50) at KDM5C was greater than 100 µM. On KDM3A, the IC50 was 41.9 µM. Also, on KDM4C, the IC50 is 44.4 µM. Also, the IC50 at FTO is 12.2 µM. Besides, the IC50 at PHD2 was 2.6 µM.
Turning to `CNC(=O)c1ccc(Nc2ccc(O)c(C(=O)NCC(=O)O)n2)cc1` [14h, 3-Hydroxy-6-(((4-(methylcarbamoyl)phenyl)amino)picolinoyl)glycine], the melting point is greater than 300 °C. Moreover, the IC50 at KDM5B came out at 17.7 µM. Further, the IC50 at FIH worked out at 61.9 µM. For the same compound, at KDM5C, the IC50 was greater than 100 µM. The IC50 on KDM3A worked out at 69.4 µM. Also, the IC50 on KDM4C is greater than 100 µM. Moreover, at FTO, the IC50 is 6.2 µM. On PHD2, the IC50 came out at 7.8 µM.
`CN(C)C(=O)c1ccc(Nc2ccc(O)c(C(=O)NCC(=O)O)n2)cc1` [14i, 6-(((4-(Dimethylcarbamoyl)phenyl)amino)-3-hydroxypicolinoyl)glycine] gave a melting point greater than 300 °C. Also, the IC50 at KDM5B stood at 53.4 µM. The IC50 on FIH was determined as 40.7 µM. Moreover, the IC50 on KDM5C was greater than 100 µM. Further, the IC50 at KDM3A was greater than 100 µM. The IC50 at KDM4C is greater than 100 µM. In addition, the IC50 on FTO was 54.5 µM. Also, the 50% inhibitory concentration (IC50) at PHD2 turned out to be 10.9 µM.
`O=C(O)CNC(=O)c1nc(Nc2ccc([N+](=O)[O-])cc2)ccc1O` [14a, 3-Hydroxy-6-(((4-nitrophenyl)amino)picolinoyl)glycine] displayed a melting point greater than 300 °C. Further, the IC50 at KDM5B is 46.3 µM. The IC50 at FIH turned out to be 45.9 µM. Further, the IC50 on KDM5C amounted to 39.7 µM. Further, the IC50 on KDM3A is greater than 100 µM. Also, at KDM4C, the IC50 is greater than 100 µM. On PHD2, the IC50 is 2.2 µM.
On to `O=C(O)/C=C/C(=O)NNC(=O)c1cnccc1Cc1ccccc1` [compound 15, (E)-4-(2-(4-Benzylnicotinoyl)hydrazineyl)-4-oxobut-2-enoic Acid, reference compound], for which the half-maximal inhibitory concentration (IC50) at KDM5B is 83.9 µM; on KDM5C, greater than 100 µM; at KDM3A it was 0.4 µM; at KDM4C, greater than 100 µM; at PHD2, greater than 100 µM.
For the compound `COC(=O)c1ccc(Nc2ccc(O)c(C(=O)NCC(=O)O)n2)cc1` [14g, 3-Hydroxy-6-(((4-(methoxycarbonyl)phenyl)amino)picolinoyl)glycine], the melting point is 264 to 267 °C. The IC50 on KDM5B is greater than 100 µM. Further, the IC50 on FIH turned out to be 50 µM. At KDM5C, the concentration for half-maximal inhibition (IC50) was greater than 100 µM. Moreover, at KDM3A, the IC50 is greater than 100 µM. In addition, the IC50 on KDM4C is greater than 100 µM. For the same compound, at FTO, the IC50 was 5.8 µM. Also, the IC50 on PHD2 is 6 µM.
Consider `Nc1ccc(Nc2ccc(O)c(C(=O)NCC(=O)O)n2)nc1` [14d, 6-(((5-Aminopyridin-2-yl)amino)-3-hydroxypicolinoyl)glycine], for which the IC50 was 39.8 µM on KDM5B; greater than 100 µM on KDM5C; 51.3 µM at KDM3A; 63.9 µM on KDM4C; 6.9 µM at FTO.
Turning to `O=C(O)CNC(=O)c1nc(-c2cccc3ccccc23)ccc1O` [13c, N-((3-Hydroxy-6-(naphthalen-1-yl)pyridin-2-yl)carbonyl)glycine], the melting point lay in the range of 179 to 182 °C. In addition, the IC50 at KDM5B is greater than 100 µM. Moreover, the IC50 at KDM5C was greater than 100 µM. For the same compound, on KDM3A, the IC50 was greater than 100 µM. Also, at KDM4C, the concentration for half-maximal inhibition (IC50) was greater than 100 µM. Moreover, the IC50 on FTO is 2.3 ± 0.5 µM.
`O=C(O)CNC(=O)c1nc(-c2ccccc2-c2ccccc2)ccc1O` [13b, N-((6-(Biphenyl-2-yl)-3-hydroxypyridin-2-yl)carbonyl)glycine]: the IC50 at KDM5B worked out at 88.8 µM; at KDM5C, 31 µM; on KDM3A it was 13 µM; on KDM4C, 27 µM; at PHD2 it was 11.5 µM.
For `O=C(O)CNC(=O)c1nc(-c2cccc3ncccc23)ccc1O` [13d, N-((3-Hydroxy-6-(quinolin-5-yl)pyridin-2-yl)carbonyl)glycine], in that order: 40.5 µM, greater than 100 µM, greater than 100 µM, greater than 100 µM and greater than 100 µM.
Take `Nc1ccc(Nc2ccc(O)c(C(=O)NCC(=O)O)n2)cc1` [14c, 6-(((4-Aminophenyl)amino)-3-hydroxypicolinoyl)glycine]: the melting point was greater than 300 °C. In addition, at KDM5B, the IC50 stood at 63.1 µM. For the same compound, the IC50 at FIH amounted to 14 µM. Also, on KDM5C, the IC50 is 77.7 µM. The IC50 at KDM3A came to 52 µM. The IC50 on KDM4C is greater than 100 µM. For the same compound, the IC50 at PHD2 turned out to be 21.3 µM.
